Results as given in PubChem BioAssay (NCI).
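How tested: cells in 96-well plates exposed to compound for 48 hours at five concentrations. The concentration for 50% growth inhibition is given as GI50. TGI is the concentration that stops growth completely.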

Key:
Assay in all cases: NCI anticancer screen, dose series, 48 h
786-0 renal = system: 786-0 renal
A498 renal = system: A498 renal
EKVX NSCLC = system: EKVX NSCLC
HCC-2998 colon = system: HCC-2998 colon
HCT-116 colon = system: HCT-116 colon
M14 melanoma = system: M14 melanoma
OVCAR-3 ovarian = system: OVCAR-3 ovarian
SF-539 CNS = system: SF-539 CNS
U251 CNS = system: U251 CNS
HS 578T breast = system: HS 578T breast
SNB-75 CNS = system: SNB-75 CNS

| SMILES | TGI (786-0 renal) [µM] | TGI (A498 renal) [µM] | TGI (EKVX NSCLC) [µM] | TGI (HCC-2998 colon) [µM] | TGI (HCT-116 colon) [µM] | TGI (M14 melanoma) [µM] | TGI (OVCAR-3 ovarian) [µM] | TGI (SF-539 CNS) [µM] | TGI (U251 CNS) [µM] | TGI (HS 578T breast) [µM] | TGI (SNB-75 CNS) [µM] | GI50 (A498 renal) [µM] | GI50 (EKVX NSCLC) [µM] | GI50 (OVCAR-3 ovarian) [µM] | GI50 (SF-539 CNS) [µM] | GI50 (SNB-75 CNS) [µM] | GI50 (HCC-2998 colon) [µM] |
| --- | --- | --- | --- | --- | --- | --- | --- | --- | --- | --- | --- | --- | --- | --- | --- | --- | --- |
| CC1=C(C(=O)OCCO[N+](=O)[O-])C(c2ccccc2C(F)(F)F)C(C(=O)OC(C)C)=C(C)N1 (centres undefined) | 36.6 | 60.6 | 97.9 | > 100 | 29.1 | 31.4 | 29.2 | 31.6 | 29.1 | – | – | – | – | – | – | – | – |
| COC1=CC(=O)C(O)=C(C[C@@]2(C)[C@@H]3CCC[C@H](COC(=O)CCCCCNC(=O)OC(C)(C)C)[C@@]3(C)CC[C@@H]2C)C1=O | > 10 | > 10 | > 10 | – | > 10 | > 10 | > 10 | – | > 10 | > 10 | > 10 | – | – | – | – | – | – |
| CN1CCN(CC(=O)Nc2ccc3ncnc(Nc4ccc(Oc5cccc(C(F)(F)F)c5)c(Cl)c4)c3c2)CC1 | – | 2.66 | 2.7 | – | – | – | 2.87 | 2.99 | – | – | 2.67 | 1.32 | 1.32 | 1.49 | 1.6 | 1.35 | – |
| CCC(=O)OCc1ccc2oc(=O)c(C(=O)Oc3cncc(Cl)c3)cc2c1 | > 100 | – | > 100 | > 100 | > 100 | > 100 | > 100 | > 100 | > 100 | > 100 | > 100 | – | – | – | – | – | – |
| [Cl-].[Rh+3].c1ccc(-c2ccnc3c2ccc2c(-c4ccccc4)ccnc23)cc1.c1ccc(-c2ccnc3c2ccc2c(-c4ccccc4)ccnc23)cc1.c1ccc(-c2ccnc3c2ccc2c(-c4ccccc4)ccnc23)cc1 | – | > 83.4 | > 91.7 | 50 | > 100 | – | > 100 | > 76 | > 100 | – | > 100 | – | – | – | – | – | – |
| Cc1ccc(S(=O)(=O)N2CCSCCSCCN(S(=O)(=O)c3ccc(C)cc3)CCN(S(=O)(=O)c3ccc(C)cc3)CC2)cc1 | > 100 | > 100 | > 100 | > 100 | > 100 | > 100 | > 100 | > 100 | > 100 | > 100 | – | – | – | – | – | – | – |
| O=C(CSc1nnc(Cc2ccccc2)o1)Nc1ccc(Cl)cc1 | > 100 | > 100 | 92.4 | > 100 | > 100 | > 100 | > 100 | > 100 | > 100 | – | > 100 | – | – | – | – | – | – |
| c1ccc2c(c1)CCc1c-2n(CCN2CCCCC2)c2ccccc12 | 33 | – | 37.9 | 26.4 | 25.5 | 29.7 | 31.1 | 26.6 | 30.3 | 35.4 | 49.1 | – | – | – | – | – | – |
| Cc1ccc(/C=C2\NC(=S)N(CN3CCOCC3)C2=O)cc1 | > 100 | > 100 | > 100 | – | > 100 | > 100 | > 100 | – | > 100 | > 100 | > 100 | – | – | – | – | – | – |
| O=C(CCCCCCCCC(=O)NN1C(=O)/C(=C\c2ccc(O)c(O)c2)SC1c1c(O)ccc2ccccc12)NN1C(=O)C(=Cc2ccc(O)c(O)c2)SC1c1c(O)ccc2ccccc12 (centres undefined) | > 70 | 75.9 | > 100 | > 100 | > 100 | > 48.5 | > 32.9 | 97.2 | > 54.4 | – | > 100 | – | – | – | – | – | – |
| O=C(O)Cc1ccc(N2N=C(c3ccccc3)CC2=O)cc1 | – | > 100 | > 100 | > 100 | > 100 | > 100 | > 100 | – | > 100 | > 100 | > 100 | – | – | – | – | – | – |
| CCOC(=O)c1c(C)n(Cc2ccccc2)c2c1cc(O)c1[nH]c3c(c12)CCCC3 | 30.2 | – | 8.12 | – | 27.8 | 20.9 | 6.2 | 5.54 | 4.1 | 7.97 | – | – | – | – | – | – | – |
| O=c1ccc2ccccc2o1 | > 100 | > 100 | > 100 | > 100 | > 100 | > 100 | > 100 | > 100 | > 100 | – | > 100 | – | – | – | – | – | – |
| CN(C)c1ccc(/C=C/c2sc3ccc4ccccc4c3[n+]2C)cc1 | – | 2.85 | – | 1.57 | – | – | – | – | – | – | – | 0.539 | – | – | – | – | 0.365 |
| CN1N=C2c3ccccc3CC[C@H]2C1c1ccccc1 (some centres undefined) | > 100 | > 100 | > 100 | > 100 | > 100 | > 100 | > 100 | > 100 | > 100 | – | – | – | – | – | – | – | – |
| Cn1c(C(C#N)c2cc(Cl)ncn2)nc2ccccc21 (centres undefined) | > 100 | > 100 | > 100 | – | > 100 | > 100 | > 100 | > 100 | > 100 | – | > 100 | – | – | – | – | – | – |
| CCSc1nc2sc(C)c(C)c2c(=O)n1-c1ccc(C(=O)O)cc1 | > 100 | > 100 | > 100 | > 100 | 74.3 | > 100 | 74.4 | 55 | > 100 | – | 70 | – | – | – | – | – | – |
| CO/N=C1\CCC2(O)C3Cc4ccc(O)c5c4C2(CCN3CC2CC2)[C@H]1O5 (some centres undefined) | > 100 | > 100 | > 100 | – | > 100 | > 100 | > 100 | > 100 | > 100 | > 100 | – | – | – | – | – | – | – |
| OCCCSc1ccccc1SCCCO | > 100 | – | > 100 | > 100 | > 100 | > 100 | > 100 | > 100 | > 100 | – | > 100 | – | – | – | – | – | – |
| Cc1ccc(C(=O)CC(Cl)=C(Cl)Cl)cc1 | > 100 | > 100 | – | – | > 100 | > 100 | > 100 | > 100 | > 100 | > 100 | > 100 | – | – | – | – | – | – |
| Cc1cccc2sc(NC(=O)c3cc([N+](=O)[O-])ccc3Cl)nc12 | 4.67 | > 100 | > 100 | 40.2 | 12 | 5.32 | 17.4 | 6.25 | 11.4 | – | > 21.1 | – | – | – | – | – | – |
| C/C=C(/C)C(=O)O[C@@H]1c2c(C)coc2C[C@H]2CC[C@H](O)[C@H](C)[C@]21C | – | – | > 100 | > 100 | > 100 | > 100 | 70.6 | 87 | > 100 | > 100 | – | – | – | – | – | – | – |
